Measurements from PubChem BioAssay AID2060889 (Molecular Pharmacology Branch, DTP, NCI, 2025).

Tested on: LG0567-F671-PDC complex spheroids viability
Test: Anticancer human tumor LG0567-F671-PDC patient-derived lung adenocarcinoma cell line growth inhibition [RAS]
Settings: for IC50: curve of first compound; for viability, T/C: stronger effect = lower value
How it was run: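 Agents were tested in combination matrices in half-log decrements from a top concentration at or near clinical Cmax (10 microM if undetermined). Targets were multi-cell spheroids of tumour lines plus HUVEC and MSC stromal cells.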

[1] = second compound 0.000949 µM, first compound 0.0316 µM
[2] = second compound 0.000949 µM, first compound 0.1 µM
[3] = second compound 0.000949 µM, first compound 0.316 µM
[4] = second compound 0.000949 µM, first compound 1 µM
[5] = second compound 0.000949 µM, first compound 3.16 µM
[6] = second compound 0.000949 µM, first compound 10 µM
[7] = second compound 0.003 µM, first compound 0.0316 µM
[8] = second compound 0.003 µM, first compound 0.1 µM
[9] = second compound 0.003 µM, first compound 0.316 µM
[10] = second compound 0.003 µM, first compound 1 µM
[11] = second compound 0.003 µM, first compound 3.16 µM
[12] = second compound 0.003 µM, first compound 10 µM
[13] = second compound 0.00949 µM, first compound 0.0316 µM
[14] = second compound 0.00949 µM, first compound 0.1 µM
[15] = second compound 0.00949 µM, first compound 0.316 µM
[16] = second compound 0.00949 µM, first compound 1 µM
[17] = second compound 0.00949 µM, first compound 3.16 µM
[18] = second compound 0.00949 µM, first compound 10 µM
[19] = second compound 0.03 µM, first compound 0.0316 µM
[20] = second compound 0.03 µM, first compound 0.1 µM
[21] = second compound 0.03 µM, first compound 0.316 µM
[22] = second compound 0.03 µM, first compound 1 µM
[23] = second compound 0.03 µM, first compound 3.16 µM
[24] = second compound 0.03 µM, first compound 10 µM
[25] = second compound 0.0949 µM, first compound 0.0316 µM
[26] = second compound 0.0949 µM, first compound 0.1 µM
[27] = second compound 0.0949 µM, first compound 0.316 µM
[28] = second compound 0.0949 µM, first compound 1 µM
[29] = second compound 0.0949 µM, first compound 3.16 µM
[30] = second compound 0.0949 µM, first compound 10 µM
[31] = second compound 0.3 µM, first compound 0.0316 µM
[32] = second compound 0.3 µM, first compound 0.1 µM
[33] = second compound 0.3 µM, first compound 0.316 µM
[34] = second compound 0.3 µM, first compound 1 µM
[35] = second compound 0.3 µM, first compound 3.16 µM
[36] = second compound 0.3 µM, first compound 10 µM
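Also: spheroids exposed to compound for seven days before readout.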
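For IC50 in this document: luminescence signal used as a proxy for viable cells.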

For `CC(C)NCC(C(=O)N1CCN(c2ncnc3c2C(C)CC3O)CC1)c1ccc(Cl)cc1` (stereo unspecified) + CCn1c(-c2cc(N3CCN(C)CC3)cnc2C(C)OC)c2c3cc(ccc31)-c1csc(n1)CC(NC(=O)C1CC1C)C(=O)N1CCCC(N1)C(=O)OCC(C)(C)C2, the IC50 (second compound 0.000949 µM) was under 31.6 nM, the IC50 (second compound 0.003 µM) was under 31.6 nM and the IC50 (second compound 0.00949 µM) was under 31.6 nM. For the same compound, the IC50 (second compound 0.03 µM) was under 31.6 nM, the IC50 (second compound 0.0949 µM) was under 31.6 nM and the IC50 (second compound 0.3 µM) was under 31.6 nM. For the same compound, the viability, T/C [1] was 25.2%, the viability, T/C [2] was 23.8% and the viability, T/C [3] was 19.2%. It also gave a viability, T/C [4] of 14.8%, a viability, T/C [5] of 12.1% and a viability, T/C [6] of 15.1%. For the same compound, the viability, T/C [7] was 12.2%, the viability, T/C [8] was 10.1% and the viability, T/C [9] was 9.03%. For the same compound, the viability, T/C [10] was 7.01%, the viability, T/C [11] was 6.61% and the viability, T/C [12] was 6.58%. The viability, T/C [13] was 6.47%, the viability, T/C [14] was 6.39% and the viability, T/C [15] was 5.04%. The viability, T/C [16] was 4.97%, the viability, T/C [17] was 3.86% and the viability, T/C [18] was 3.52%. For the same compound, the viability, T/C [19] was 4.03%, the viability, T/C [20] was 3.99% and the viability, T/C [21] was 3.4%. The viability, T/C [22] was 2.83%, the viability, T/C [23] was 2.4% and the viability, T/C [24] was 2.51%. The viability, T/C [25] was 3.05%, the viability, T/C [26] was 2.86% and the viability, T/C [27] was 2.34%. For the same compound, the viability, T/C [28] was 1.84%, the viability, T/C [29] was 1.68% and the viability, T/C [30] was 1.73%. It also gave a viability, T/C [31] of 2.97%, a viability, T/C [32] of 2.51% and a viability, T/C [33] of 2.28%. It also gave a viability, T/C [34] of 1.91%, a viability, T/C [35] of 1.51% and a viability, T/C [36] of 1.41%.

`C=CC(=O)Nc1cc(Nc2nccc(-c3cn(C)c4ccccc34)n2)c(OC)cc1N(C)CCN(C)C` + C#Cc1c(F)ccc2cc(O)cc(-c3ncc4c(N5CC6CCC(C5)N6)nc(OCC56CCCN5CC(F)C6)nc4c3F)c12 was tested, and the IC50 (second compound 0.0316 µM) was 120 nM, the IC50 (second compound 0.1 µM) was 84.3 nM and the IC50 (second compound 0.316 µM) was 8.15 nM. For the same compound, the IC50 (second compound 1 µM) was under 3.16 nM, the IC50 (second compound 3.16 µM) was under 3.16 nM and the IC50 (second compound 10 µM) was under 3.16 nM. For the same compound, the viability, T/C (second compound 0.0316 µM, first compound 0.00316 µM) was 88.7%, the viability, T/C (second compound 0.0316 µM, first compound 0.01 µM) was 80.7% and the viability, T/C (second compound 0.0316 µM, first compound 0.0316 µM) was 67.4%. It also gave a viability, T/C (second compound 0.0316 µM, first compound 0.1 µM) of 54.1%, a viability, T/C (second compound 0.0316 µM, first compound 0.316 µM) of 34.5% and a viability, T/C (second compound 0.0316 µM, first compound 1 µM) of 19.1%. For the same compound, the viability, T/C (second compound 0.1 µM, first compound 0.00316 µM) was 79.8%, the viability, T/C (second compound 0.1 µM, first compound 0.01 µM) was 74.8% and the viability, T/C (second compound 0.1 µM, first compound 0.0316 µM) was 66.8%. For the same compound, the viability, T/C (second compound 0.1 µM, first compound 0.1 µM) was 47.1%, the viability, T/C (second compound 0.1 µM, first compound 0.316 µM) was 27% and the viability, T/C (second compound 0.1 µM, first compound 1 µM) was 16.2%. It also gave a viability, T/C (second compound 0.316 µM, first compound 0.00316 µM) of 53.4%, a viability, T/C (second compound 0.316 µM, first compound 0.01 µM) of 49.3% and a viability, T/C (second compound 0.316 µM, first compound 0.0316 µM) of 42.8%. For the same compound, the viability, T/C (second compound 0.316 µM, first compound 0.1 µM) was 28.4%, the viability, T/C (second compound 0.316 µM, first compound 0.316 µM) was 22.1% and the viability, T/C (second compound 0.316 µM, first compound 1 µM) was 11.3%. For the same compound, the viability, T/C (second compound 1 µM, first compound 0.00316 µM) was 38.1%, the viability, T/C (second compound 1 µM, first compound 0.01 µM) was 32.8% and the viability, T/C (second compound 1 µM, first compound 0.0316 µM) was 28.9%. It also gave a viability, T/C (second compound 1 µM, first compound 0.1 µM) of 20.4%, a viability, T/C (second compound 1 µM, first compound 0.316 µM) of 11.9% and a viability, T/C (second compound 1 µM, first compound 1 µM) of 6.5%. For the same compound, the viability, T/C (second compound 3.16 µM, first compound 0.00316 µM) was 20.5%, the viability, T/C (second compound 3.16 µM, first compound 0.01 µM) was 17% and the viability, T/C (second compound 3.16 µM, first compound 0.0316 µM) was 16.2%. For the same compound, the viability, T/C (second compound 3.16 µM, first compound 0.1 µM) was 12.2%, the viability, T/C (second compound 3.16 µM, first compound 0.316 µM) was 8.15% and the viability, T/C (second compound 3.16 µM, first compound 1 µM) was 4.09%. For the same compound, the viability, T/C (second compound 10 µM, first compound 0.00316 µM) was 13.5%, the viability, T/C (second compound 10 µM, first compound 0.01 µM) was 10.9% and the viability, T/C (second compound 10 µM, first compound 0.0316 µM) was 9.25%. It also gave a viability, T/C (second compound 10 µM, first compound 0.1 µM) of 6.54%, a viability, T/C (second compound 10 µM, first compound 0.316 µM) of 4.27% and a viability, T/C (second compound 10 µM, first compound 1 µM) of 2.83%.

For `CC1(O)CCCC1n1c(=O)c(C(F)F)cc2cnc(NC3CCN(S(C)(=O)=O)CC3)nc21` (stereo unspecified) + CCn1c(-c2cc(N3CCN(C)CC3)cnc2C(C)OC)c2c3cc(ccc31)-c1csc(n1)CC(NC(=O)C1CC1C)C(=O)N1CCCC(N1)C(=O)OCC(C)(C)C2, the IC50 (second compound 0.000949 µM) was under 31.6 nM, the IC50 (second compound 0.003 µM) was under 31.6 nM and the IC50 (second compound 0.00949 µM) was under 31.6 nM. For the same compound, the IC50 (second compound 0.03 µM) was under 31.6 nM, the IC50 (second compound 0.0949 µM) was under 31.6 nM and the IC50 (second compound 0.3 µM) was under 31.6 nM. For the same compound, the viability, T/C [1] was 29.6%, the viability, T/C [2] was 27.7% and the viability, T/C [3] was 34.2%. For the same compound, the viability, T/C [4] was 35.2%, the viability, T/C [5] was 36.3% and the viability, T/C [6] was 24.7%. For the same compound, the viability, T/C [7] was 11.8%, the viability, T/C [8] was 15.6% and the viability, T/C [9] was 16.7%. For the same compound, the viability, T/C [10] was 17.6%, the viability, T/C [11] was 18.6% and the viability, T/C [12] was 14.1%. It also gave a viability, T/C [13] of 7.99%, a viability, T/C [14] of 8.49% and a viability, T/C [15] of 10.3%. It also gave a viability, T/C [16] of 10.8%, a viability, T/C [17] of 11.8% and a viability, T/C [18] of 8.83%. The viability, T/C [19] was 4.53%, the viability, T/C [20] was 5.49% and the viability, T/C [21] was 6.91%. The viability, T/C [22] was 7.53%, the viability, T/C [23] was 8.07% and the viability, T/C [24] was 5.96%. It also gave a viability, T/C [25] of 4.61%, a viability, T/C [26] of 4.51% and a viability, T/C [27] of 5.52%. For the same compound, the viability, T/C [28] was 6.15%, the viability, T/C [29] was 6.66% and the viability, T/C [30] was 5%. It also gave a viability, T/C [31] of 3.25%, a viability, T/C [32] of 3.76% and a viability, T/C [33] of 4.31%. It also gave a viability, T/C [34] of 5.52%, a viability, T/C [35] of 5.43% and a viability, T/C [36] of 4.68%.
